Source: patent publication US9943540B2, “Pharmaceutical formulation for the treatment of osteoarthritis containing clodronic acid and hyaluronic acid” (ABIOGEN PHARMA S.P.A., priority 2005, dated 2018)
Entries after “also recorded” stand apart in the source; their conditions may differ.

Key:
[1] = test system: gonarthritis; experiment: Preliminary clinical trial of intra-articular infiltration, responders by Womac 20 and Womac 50; type: in vivo, patients; settings: for Womac 20 (responders, 20% improvement in the symptoms) / Womac 50 (responders, 50% improvement in the symptoms): patients with gonarthritis, % of patients
Experimental: Preliminary clinical trials with the formulations according to the invention were based on the measurement of Womac 20 and Womac 50, ie. a 20% and 50% improvement in the symptoms to establish the responders to the treatment (Ann Rheum Dis. 2005). Recently, to assess the effectiveness of intra-articular clodronic acid, 1 mg of clodronic acid is administered in patients with gonarthritis obtaining an improvement in symptoms which, when evaluated with Womac 50, related to 32% of the patients. 15 patients suffering from gonarthritis received, according to the invention, an infiltration of 2 ml of solution constituted by 20 mg of hyaluronic acid (Hyalgan) together with 1 mg of clodronic acid once a week for 3 weeks. At the end of the infiltration cycle, as reassumed in the following table, 58% of the patients were responders according to Womac 20, and 37% were responders according to Womac 50. […] The final result of 3 weekly infiltrations of the combination of the two drugs was also better than the cycle with 5 weekly infiltrations of hyaluronic acid (Womac 20:51% and Womac 50:30%) or clodronic acid (Womac 20:54% and Womac 50:32%).

[2] = test system: synovitis secondary to knee osteoarthritis; settings: patients with synovitis secondary to knee osteoarthritis; cited from earlier work
[3] = test system: gonalgia and gonarthrosis; experiment: Multicenter clinical study of intra-articular clodronate; type: in vivo, patients; settings: 2 mg once a week over 4 consecutive weeks
Source text: (§1) The low pH used was dictated by stability problems, +which made less acid values of the solutions unacceptable.

[4] = test system: gonarthritis; experiment: Clinical trial of intra-articular sodium clodronate in evident gonarthritis; type: in vivo, patients
Source text: as §1

[5] = test system: damaging effects on the joint structures by Freund's adjuvant; experiment: Study on rats: damage to joint structures by Freund's adjuvant; type: in vivo
[6] = 2 ml intra-articular infiltration once a week for 3 weeks
[7] = 2 ml intra-articular infiltration once a week for 5 weeks

| Compound | improvement in symptoms evaluated with Womac 50 ([1]; 1 mg clodronic acid intra-articular in patients with gonarthritis, regimen not stated, % of the patients) [%] | Womac 20 (responders, 20% improvement in the symptoms) [1, 6] [%] | Womac 50 (responders, 50% improvement in the symptoms) [1, 6] [%] | Womac 20 (responders, 20% improvement in the symptoms) [1, 7] [%] | Womac 50 (responders, 50% improvement in the symptoms) [1, 7] [%] | patient's symptomatology [2] | response to intra-articular administration [3] | attenuation of pain and recovery of joint movement ([4]; after 5 intra-articular injections of 2 mg) | adverse events: pain response at the time of the injection ([4]; clodronate alone intra-articularly, acidic solution, observed in the trials of b9 and b10) | inhibition of damaging effects on the joint structures by Freund's adjuvant [5] |
| --- | --- | --- | --- | --- | --- | --- | --- | --- | --- | --- |
| O=P(O)(O)C(Cl)(Cl)P(=O)(O)O [Clodronic acid, clodronic acid] | 32 | 43 | 27 | 54 | 32 | – | – | – | – | – |
| O=P(O)(O)C(Cl)(Cl)P(=O)(O)O [sodium clodronate] | – | – | – | – | – | significant improvement | best responses | interesting results were observed | some adverse events were also observed; also recorded: normally occurs | able to inhibit damaging effects on the joint structures |
| sodium hyaluronate | – | 41 | 24 | 51 | 30 | – | – | – | – | – |
